Test results taken from ChEMBL document CHEMBL6096728, “Simultaneous Induction of Immunogenic Pyroptosis and PD-L1 Downregulation by One Single Photosensitizer for Synergistic Cancer Photoimmunotherapy” (J Med Chem, 2025).
Calls of active or inactive are those of the source. No cut-off for these calls is given here.

Key:
MDA-MB-231 [1] = test: Photocytotoxicity in human MDA-MB-231 cells assessed as reduction in 3D multicellular spheroids diameter at 0.5 to 1 uM incubated for 24 hrs under light irradiation of 50 mW.cm/2 at 400 to 700nm measured after 10 mins in hypoxia condition; format: functional, cell-based; conditions: dose 0.5-1 µM
MDA-MB-231 [2] = test: Induction of pyroptosis in human MDA-MB-231 cells assessed as cell swelling at 0.5 uM preincubated with compound for 4 hrs followed by light irradiation of 20 mW.cm/2 at 400 to 700nm for 10 mins by confocal fluorescence microscopy analysis; format: functional, cell-based
4T1 [3] = test: Antitumor immunity against mouse 4T1 cells implanted in BALB/c mouse model assessed as upregulation of proportion of dendritic cells in lymph node at 25 mg/kg, iv measured after 14 days under light irradiation of 300 mW.cm/2 at 400 to 700nm measured after 5 mins by flow cytometry analysis; format: functional, organism-based; conditions: time 14.0 day
[4] = Toxicity in BALB/c mouse assessed as effect on heart at 25 mg/kg, iv measured after 14 days by H and E staining based analysis; format: organism-based; conditions: in vivo, 336 h, time 14 day
4T1 [5] = test: Antitumor immunity against mouse 4T1 cells implanted in BALB/c mouse model assessed as increase in IL-6 secretion in tumors at 25 mg/kg, iv measured after 14 days under light irradiation of 300 mW.cm/2 at 400 to 700nm measured after 5 mins by ELISA method; format: functional, organism-based; conditions: time 14.0 day
MDA-MB-231 [6] = test: Induction of pyroptosis in human MDA-MB-231 cells assessed as upregulation of caspase-3 expression level at 0.1 to 0.5 uM incubated with compound for 12 hrs under dark condition by Western blot analysis; format: functional, cell-based; conditions: dose 0.1-0.5 µM
MDA-MB-231 [7] = test: Induction of cell death in human MDA-MB-231 cells assessed as increase in red fluorescence at 0.5 uM incubated for 24 hrs followed by light irradiation of 20 mW.cm/2 at 400 to 700nm for 10 mins by Calcein-AM/PI staining based analysis; format: functional
4T1 [8] = test: Downregulation of PD-L1 expression level in mouse 4T1 cells at 0.1 to 0.5 uM incubated for 24 hrs under light irradiation of 20 mW.cm/2 at 400 to 700nm for 10 mins by Western blot analysis; format: functional, cell-based; conditions: dose 0.1-0.5 µM
4T1 [9] = test: Antitumor immunity against mouse 4T1 cells implanted in BALB/c mouse model assessed as fold increase in CD4+ T cells in spleen at 25 mg/kg, iv measured after 14 days under light irradiation of 300 mW.cm/2 at 400 to 700nm measured after 5 mins […]; format: functional; conditions: time 14 day
4T1 [10] = test: Cytotoxicity against mouse 4T1 cells at 0.01 to 10 uM incubated for 2 hrs under dark condition by CCK-8 method; format: functional, cell-based; conditions: dose 0.01-10 µM
4T1 [11] = test: Induction of cell death in mouse 4T1 cells assessed as decrease in green fluorescence at 0.5 uM incubated for 24 hrs followed by light irradiation of 20 mW.cm/2 at 400 to 700nm for 10 mins by Calcein-AM/PI staining based analysis; format: functional
4T1 [12] = test: Antitumor immunity against mouse 4T1 cells implanted in BALB/c mouse model assessed as increase in IL1beta secretion in tumors at 25 mg/kg, iv measured after 14 days under light irradiation of 300 mW.cm/2 at 400 to 700nm measured after 5 mins by ELISA method; format: functional, organism-based; conditions: time 14.0 day
MDA-MB-231 [13] = test: Photocytotoxicity in human MDA-MB-231 cells assessed as cell viablity incubated for 24 hrs under light irradiation of 50 mW.cm/2 at 400 to 700nm measured after 10 mins in normoxia condition by CCK-8 method; format: functional, cell-based; conditions: MDA-MB-231, light or radiation study
[14] = Toxicity in BALB/c mouse assessed as effect on spleen at 25 mg/kg, iv measured after 14 days by H and E staining based analysis; format: organism-based; conditions: in vivo, 336 h, time 14 day
MDA-MB-231 [15] = test: Downregulation of PD-L1 expression level in human MDA-MB-231 cells at 0.5 uM preincubated with chloroquine followed by compound addition and measured after 24 hrs under light irradiation of 20 mW.cm/2 at 400 to 700nm for 10 mins by Western blot analysis; format: functional, cell-based
[16] = Toxicity in BALB/c mouse assessed as effect on spleen at 25 mg/kg, iv measured after 14 days under light irradiation of 300 mW.cm/2 at 400 to 700nm measured after 5 mins; format: organism-based; conditions: in vivo, 336 h, 0.7 µM, time 14 day
MDA-MB-231 [17] = test: Downregulation of PD-L1 expression level in human MDA-MB-231 cells at 0.5 uM preincubated with MG-132 followed by compound addition and measured after 24 hrs under light irradiation of 20 mW.cm/2 at 400 to 700nm for 10 mins by Western blot analysis; format: functional, cell-based
4T1 [18] = test: Inhibition of mouse 4T1 cells at 0.1 uM under light irradiation of 20 mW.cm/2 at 400 to 700nm measured after 14 days by crystal violet staining based assay; format: functional, cell-based; conditions: time 14.0 day
[19] = Drug accumulation in BALB/c mouse tumor implanted with mouse 4T1 cells assessed as increase in fluorescence intensity at 25 mg/kg, iv measured after 12 hrs by imaging based analysis; format: ADME, organism-based, Neoplasm; conditions: in vivo
[20] = Phototoxicity against human MDA-MB-231 cells preincubated for 2 hrs followed by light irradiation of 20 mW.cm/2 at 400 at 700nm for 24 hrs by CCK-8 method; format: functional, cell-based; conditions: MDA-MB-231, light or radiation study
4T1 [21] = test: Antitumor immunity against mouse 4T1 cells implanted in BALB/c mouse model assessed as fold increase in CD8+ T cells in spleen at 25 mg/kg, iv measured after 14 days under light irradiation of 300 mW.cm/2 at 400 to 700nm measured after 5 mins […]; format: functional; conditions: time 14 day
[22] = Toxicity in BALB/c mouse assessed as effect on lung at 25 mg/kg, iv measured after 14 days under light irradiation of 300 mW.cm/2 at 400 to 700nm measured after 5 mins; format: organism-based; conditions: in vivo, 336 h, 0.7 µM, time 14 day
[23] = Toxicity in BALB/c mouse assessed as effect on hemoglobin at 25 mg/kg, iv measured after 14 days; format: organism-based; conditions: in vivo, 336 h, time 14 day
[24] = Toxicity in BALB/c mouse assessed as effect on kidney at 25 mg/kg, iv measured after 14 days by H and E staining based analysis; format: organism-based; conditions: in vivo, 336 h, time 14 day
4T1 [25] = test: Antitumor immunity against mouse 4T1 cells implanted in BALB/c mouse model assessed as upregulation of proportion of neutrophils in lymph node at 25 mg/kg, iv measured after 14 days under light irradiation of 300 mW.cm/2 at 400 to 700nm measured after 5 mins by flow cytometry analysis; format: functional, organism-based; conditions: time 14.0 day
[26] = Phototoxicity against mouse 4T1 cells preincubated for 2 hrs followed by light irradiation of 20 mW.cm/2 at 400 at 700nm for 24 hrs by CCK-8 method; format: functional, cell-based; conditions: 4T1, light or radiation study
MDA-MB-231 [27] = test: Induction of cell death in human MDA-MB-231 cells assessed as decrease in green fluorescence at 0.5 uM incubated for 24 hrs followed by light irradiation of 20 mW.cm/2 at 400 to 700nm for 10 mins by Calcein-AM/PI staining based analysis; format: functional

O=c1cc2sc3cc(N4CCNCC4)ccc3nc-2c2ccccc12
Activity (MDA-MB-231 [1]): Active | Activity (MDA-MB-231 [2]): Active | Activity (4T1 [3]): Active | Activity [4]: Non-toxic | Activity (4T1 [5]): Active | Activity (MDA-MB-231 [6]): Active; Compound Showed Negligible Changes | Activity (MDA-MB-231 [7]): Active | Activity (4T1 [8]): Active | fold change (FC) (4T1 [9]): 6.8 | Activity (4T1 [10]): Active; Compound Showed Low Toxicity | Activity (4T1 [11]): Active | Activity (4T1 [12]): Active | IC50 (MDA-MB-231 [13]): 356 nM | Activity [14]: Non-toxic | Activity (MDA-MB-231 [15]): inactive | Activity [16]: Non-toxic | Activity (MDA-MB-231 [17]): inactive | inhibition (4T1 [18]): Active | Drug uptake [19]: Active | IC50 [20]: 164 nM | fold change (FC) (4T1 [21]): 6.3 | Activity [22]: Non-toxic | Activity [23]: Non-toxic | Activity [24]: Non-toxic | Activity (4T1 [25]): Active | IC50 [26]: 403 nM | Activity (MDA-MB-231 [27]): Active
